Laboratory results from patent publication US11723894B2, “Combination product for the treatment of neurological and/or psychiatric disorders” (Consejo Superior de Investigaciones Cientificas (CSIC), priority 2017, dated 2023).

Columns and labels:
microglial cells = test: LPS-induced nitrite production (Griess) in primary microglial cultures; assay type: cell-based, rat; conditions: microglia; for reduction of LPS-induced nitrite in the presence of Rit: Rit 1 μM 1 h before tryptamine 1 μM, then LPS 10 μg/mL 24 h; for LPS-induced nitrite increases: tryptamine 1 μM before LPS 10 μg/mL, 24 h, vs LPS alone
Protocol: (§1) Example 8: DMT, DET, DPT and 5-MeO-DMT administration in vitro prevents inflammation in rat primary glial cells. […] Rat primary glial cell cultures were prepared from the cerebral cortex of 3 day old rats which were dissected, dissociated, and incubated with 0.25% trypsin/EDTA at 37° C. for 1 h. After centrifugation, the pellet was washed three times with HBSS (Gibco) and the cells were plated in poly-D-lysine (20 μg/mL) pretreated flasks (75 cm2). After 7-10 days, the flasks were agitated in an orbital shaker for 4 h at 230 rpm at 37° C. and non-adherent microglial cells were isolated and plated. Then Dulbecco's Modified Eagle's Medium (DMEM) was added to the flasks, which were agitated in a horizontal shaker at 260 rpm at 37° C. After overnight agitation, the supernatant (oligodendrocytes and some remaining microglial cells) was removed, and astrocytes (adherent cells) were collected. The purity of the cultures was >95%, as determined by immunofluorescence analysis using an anti-glial fibrillary acidic protein (GFAP; clone G-A-5; Sigma-Aldrich) antibody to identify astrocytes, and an anti-Iba1 (Wako Catalog No. 019-19741) antibody to identify microglial cells. On attaining semiconfluence, cells were administered each of the test tryptamines at 1 μM or with the combination test tryptamine+Ritanserin (Rit at 1 μM) 2 h before exposure to lipopolysaccharide (LPS, 10 μg/mL; Sigma-Aldrich) and kept in the presence of each drug or drug combination for 24 h. In combination studies, Rit was added to medium 1h before administration of the corresponding tryptamine. Vehicle-treated cultures were used as a control. After the 24 h drug exposure period, cultures were tested to assess nitrite release. To quantify nitrite concentrations in culture medium, supernatants of glial cultures were collected and mixed with an equal volume of Griess reagent (Sigma-Aldrich). Samples were then incubated at room temperature for 15 min and absorbance was measured at 540 nm on a microplate reader. Results are expressed as the mean±SEM of six replications in three different experiments

astrocytes = test: LPS-induced nitrite production (Griess) in primary astrocyte cultures; assay type: cell-based, rat; conditions: for reduction of LPS-induced nitrite in the presence of Rit: Rit 1 μM 1 h before tryptamine 1 μM, then LPS 10 μg/mL 24 h; for LPS-induced nitrite increases: tryptamine 1 μM before LPS 10 μg/mL, 24 h, vs LPS alone
Protocol: as §1

[1] = system: Human SH-SY5Y dopaminergic cells; test: 6-OHDA in vitro model of Parkinson's Disease, cell viability (MTT); assay type: cell-based; conditions: tryptamine 1 μM 1 h, then 6-OHDA 30 μM 24 h; for reduction in dopaminergic cell death in the presence of Ritanserin: Rit 1 μM 1 h; for percentage of viable dopaminergic neurons: vs 6-OHDA alone
Source text: (§2) Example 9: DMT, DET, DPT and 5-MeO-DMT prevent dopaminergic cell death and inflammation (Only Measured for DMT) caused by the potent and selective dopaminergic toxin 6-OHDA in an in vitro model of Parkinson's Disease. These desired effects are preserved in the presence of the 5-HT2A antagonist Ritanserin (Rit). The Human SH-SY5Y dopaminergic cell line was obtained from Sigma-Aldrich, cultured in 96-well plates and propagated in RPMI medium containing glutamine (1%) and 15% of fetal bovine serum (FBS) plus antibiotic (gentamicin), under humidified 5% CO2 and 95% air. On attaining semiconfluence, separate groups of cells were treated with either: a) one of the four hallucinogenic tryptamines at 1 μM for 1 h, followed by 6-OHDA at 30 μM for 24 hours; or b) Rit at 1 μM for 1h, followed one of the four hallucinogenic tryptamines at 1 μM for an additional hour, at which point 6-OHDA was administered, also at 30 μM, and kept for 24 hours. Vehicle-treated cultures were used as controls. Cell cultures were then processed to assess cell viability (for all four tryptamines) and quantification of nitrite concentration (only performed in the DMT and DMT+Rit tests). Cell viability was measured using the MTT assay (Roche Diagnostic, GmbH), which is based on the ability of viable cells to reduce yellow MTT to blue formazan. After the aforementioned 24 h period in the presence of the different tryptamines or the respective tryptamine+Rit combinations, cells were incubated with MTT (0.5 mg/ml, 4 h) and subsequently solubilized in 10% SDS/0.01 M HCl for 12 h in the dark. The extent of MTT reduction was quantified by absorbance measurement at the 595 nm wavelength, as indicated in the instructions provided by the manufacturer. Nitrite quantification: Due to access to equipment problems at the time the experiments with DET, DPT and 5-MeO-DMT were conducted, the assessment of nitrite levels in the medium could only be done for the DMT experiments. These determinations were carried out as described in Example 8. Results from the cell viability tests are expressed as the percentage of viable dopaminergic cells measured. Results from nitrite determinations are expressed as actual concentrations (μM). Results from both techniques are presented in bar graphs.

[2] = system: dopaminergic neurons of the Substantia nigra pars compacta; test: 6-OHDA in vivo model of Parkinson's Disease (injection into Substantia nigra pars compacta); design: species or system C57BL/6 mice; conditions: 5 μg 6-OHDA alone into SNpc, 3 weeks
Protocol: Example 10: DMT administration prevents dopaminergic cell death in a in vivo model of Parkinson's disease. Adult male C57BL/6 mice (8-12 weeks old) were used in this study. Animals were properly anaesthetized and placed in a stereotaxic apparatus (Kopf Instruments, CA). 6-OHDA (5 μg in […] PBS) was injected into the right side of the Substantia nigra pars compacta (SNpc) (coordinates from Bregma: posterior −3.2 mm; lateral +2.0 mm; ventral: +4.7 mm, according to the atlas of Paxinos and Franklin, The Mouse Brain in Stereotaxic Coordinates. 4. San Diego: Academic Press; 2012). Control animals of the same age were injected with PBS. A third group received an injection with 6-OHDA (5 μg) combined with DMT (0.1 μg) in […] PBS. Mice were then housed individually to recover and sacrificed 3 weeks later. At this point animals were anaesthetized and perfused transcardially with a 4% paraformaldehyde solution. The brains were removed, postfixed in the same solution at 4° C. overnight, cryoprotected in 20% sucrose, frozen, and 30 μm coronal sections were obtained in a cryostat. Free-floating sections were processed for double fluorescent immunohistochemistry. […] Neuronal integrity and specifically dopaminergic cell death was assessed by counting the percentage of TH^+ cells in the SNpc following a stereological approach. […] Images were analyzed using computer-assisted image analysis software (Soft Imaging System Corporation, Lakewood, Colo.). Results were expressed as the percentage of dopaminergic cell loss in the SNpc.

[3] = 6-OHDA in vitro model of Parkinson's Disease, cell viability (MTT); assay type: cell-based, human; conditions: human, SH-SY5Y dopaminergic cells, 6-OHDA alone 30 μM 24 h
Source text: as §2

With `COc1ccc2[nH]cc(CCN(C)C)c2c1` [5-MeO-DMT, 5-methoxy-N,N-dimethyltryptamine] the “reduction of LPS-induced nitrite in the presence of Rit” value (shortened to “reduction of LPS-induced nitrite”) (microglial cells) was “maintained”, the LPS-induced nitrite increases (microglial cells) was “significantly reduced” and the “reduction of LPS-induced nitrite” value (astrocytes) was “maintained”. For the same compound, the LPS-induced nitrite increases (astrocytes) was “significantly reduced”, the “reduction in dopaminergic cell death in the presence of Ritanserin” value (“reduction in dopaminergic cell death” below) [1] was “maintained” and the “percentage of viable dopaminergic neurons” value [1] was “significant increases”.

In the case of `NCCc1cc(O)c(O)cc1O` [6-OHDA, 6-hydroxy-dopamine, reference compound], the “average percentage of dopaminergic cell loss in the SNpc” value [2] is reported as 60%, the viability at 24 h, 30 μM ([3]; DET, DPT and 5-MeO-DMT experiments, read-out: cell viability, of the reference control value) is reported as about 60% and the cytotoxicity at 24 h, 30 μM ([3]; DMT experiments (graph A.1), read-out: reduction in the number of viable dopaminergic cells compared to vehicle treated cultures) is reported as 50%.

With `CCN(CC)CCc1c[nH]c2ccccc12` [DET, N,N-diethyltryptamine] the “reduction of LPS-induced nitrite” value (microglial cells) was “maintained”, the LPS-induced nitrite increases (microglial cells) was “significantly reduced” and the “reduction of LPS-induced nitrite” value (astrocytes) was “maintained”. The LPS-induced nitrite increases (astrocytes) was “significantly reduced”, the “reduction in dopaminergic cell death” value [1] was “maintained” and the “percentage of viable dopaminergic neurons” value [1] was “significant increases”.

With `CCCN(CCC)CCc1c[nH]c2ccccc12` [DPT, N,N-dipropyltryptamine] the “reduction of LPS-induced nitrite” value (microglial cells) was “maintained”, the LPS-induced nitrite increases (microglial cells) was “significantly reduced” and the “reduction of LPS-induced nitrite” value (astrocytes) was “maintained”. For the same compound, the LPS-induced nitrite increases (astrocytes) was “significantly reduced”, the “reduction in dopaminergic cell death” value [1] was “maintained” and the “percentage of viable dopaminergic neurons” value [1] was “significant increases”.
